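Dose response: 5 concentrations. Exposure: 48 h. Format: 96-well plates. Endpoint: linear interpolation; highest concentration if not reached. At the GI50, growth is halved.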 Active and inactive are the calls of the source. No stated cut-off is given here; in the data, active = GI50 up to about 1.1 µM and inactive = higher.
How the values were obtained:
Assay in all cases: NCI anticancer screen, dose series, 48 h
CAKI-1 = tested on: CAKI-1
EKVX = tested on: EKVX
HL-60 = tested on: HL-60
M14 = tested on: M14
MDA-MB-435 = tested on: MDA-MB-435
MDA-N = tested on: MDA-N
NCI-H23 = tested on: NCI-H23
OVCAR-3 = tested on: OVCAR-3
OVCAR-5 = tested on: OVCAR-5
PC-3 = tested on: PC-3
SF-295 = tested on: SF-295
SF-539 = tested on: SF-539
SK-MEL-5 = tested on: SK-MEL-5
SN12C = tested on: SN12C
SW-620 = tested on: SW-620
TK-10 = tested on: TK-10
UACC-257 = tested on: UACC-257
UACC-62 = tested on: UACC-62
T47D = tested on: T47D
SNB-75 = tested on: SNB-75

Measured: GI50

CC(C)(C)C1CCC2c3c([nH]c4ccccc34)C3C(=O)N(c4ccccc4Cl)C(=O)C3C2C1 (centres undefined)
inactive: CAKI-1 9.12 µM | EKVX 6.65 µM | HL-60 12.6 µM | M14 17.1 µM | MDA-MB-435 30.7 µM | MDA-N 12.1 µM | NCI-H23 14.4 µM | OVCAR-3 15.6 µM | OVCAR-5 > 10 µM | PC-3 5.31 µM | SF-295 19.7 µM | SF-539 > 10 µM | SK-MEL-5 14.1 µM | SN12C 10.6 µM | SW-620 7.94 µM | TK-10 19.4 µM | UACC-257 31.6 µM | UACC-62 14 µM

COc1ccc(C2NC3=C(CCCC3)C3(C#N)C(=O)N=C(N)C23C#N)cc1 (centres undefined)
inactive: CAKI-1 > 100 µM | EKVX > 100 µM | HL-60 > 100 µM | M14 > 100 µM | MDA-MB-435 > 100 µM | MDA-N > 100 µM | NCI-H23 > 100 µM | OVCAR-5 > 100 µM | PC-3 > 100 µM | SF-295 > 100 µM | SK-MEL-5 > 100 µM | SN12C > 100 µM | SW-620 > 100 µM | T47D > 100 µM | TK-10 > 100 µM | UACC-257 > 100 µM | UACC-62 > 100 µM

COC(=O)C(Cc1c[nH]c2ccccc12)NC(=O)C(Cc1c[nH]cn1)NC(=O)C1CCC(=O)N1C(=O)OCc1ccccc1 (centres undefined)
inactive: EKVX > 100 µM | HL-60 > 100 µM | M14 > 100 µM | MDA-N > 100 µM | NCI-H23 > 100 µM | OVCAR-5 > 100 µM | PC-3 > 100 µM | SK-MEL-5 > 100 µM | SNB-75 > 100 µM | SW-620 > 100 µM | T47D 5.13 µM | TK-10 > 100 µM | UACC-257 > 100 µM | UACC-62 > 100 µM

O=c1cc(/N=N/c2ccc(O)cc2)[nH]c(=O)[nH]1
inactive: CAKI-1 > 100 µM | EKVX > 100 µM | HL-60 > 100 µM | M14 > 100 µM | MDA-MB-435 > 100 µM | MDA-N > 100 µM | NCI-H23 > 100 µM | OVCAR-3 40.7 µM | OVCAR-5 > 100 µM | PC-3 > 100 µM | SF-295 > 100 µM | SF-539 53.5 µM | SK-MEL-5 > 100 µM | SN12C 66.7 µM | SNB-75 26.6 µM | SW-620 > 100 µM | TK-10 99.3 µM | UACC-257 73.1 µM | UACC-62 60.7 µM

Cc1cc(C)n2nc3nc(N)c(C#N)c(-c4ccccc4)c3c2n1
inactive: CAKI-1 > 100 µM | EKVX > 100 µM | HL-60 > 100 µM | M14 > 100 µM | MDA-MB-435 > 100 µM | MDA-N > 100 µM | NCI-H23 > 100 µM | OVCAR-3 > 73.6 µM | OVCAR-5 > 100 µM | PC-3 > 100 µM | SF-295 > 100 µM | SF-539 > 100 µM | SK-MEL-5 > 80.2 µM | SN12C > 100 µM | SW-620 > 100 µM | TK-10 > 100 µM | UACC-257 > 100 µM | UACC-62 > 100 µM

COC(=O)C([C@H]1CC[C@H](OCc2ccccc2)[C@@]1(O)COCc1ccccc1)C(C)(O)CCc1ccccc1 (some centres undefined)
inactive: CAKI-1 57.9 µM | EKVX 8.57 µM | M14 10.6 µM | MDA-MB-435 14.4 µM | MDA-N 13.1 µM | NCI-H23 15.4 µM | OVCAR-3 12.7 µM | OVCAR-5 13.5 µM | PC-3 4.13 µM | SF-295 8.41 µM | SF-539 15.4 µM | SK-MEL-5 14.1 µM | SN12C 5.13 µM | SNB-75 2.07 µM | SW-620 13.5 µM | TK-10 17.1 µM | UACC-257 13.8 µM | UACC-62 13.2 µM

O=C(/C=C/c1cccc([N+](=O)[O-])c1)N1CCN(CCOC(c2ccccc2)c2ccccc2)CC1
inactive: CAKI-1 > 100 µM | EKVX > 100 µM | M14 32.9 µM | MDA-MB-435 33.4 µM | MDA-N 37.3 µM | NCI-H23 43.6 µM | OVCAR-3 66.1 µM | OVCAR-5 > 100 µM | SF-295 56.8 µM | SK-MEL-5 14.9 µM | SN12C 57.5 µM | SNB-75 54.2 µM | SW-620 38.9 µM | T47D 17.9 µM | TK-10 22.7 µM | UACC-257 32.4 µM | UACC-62 33.8 µM

CC1(C)CC[C@]2(C(=O)O)CC[C@]3(C)C(=CC[C@@H]4[C@@]5(C)CC[C@H](OC6OC(CO)C(O)C(O)C6OC6OC(CO)C(O)C(O)C6O)C(C)(C)[C@@H]5CC[C@]43C)[C@@H]2C1 (some centres undefined)
inactive: CAKI-1 19.5 µM | EKVX 18.5 µM | HL-60 21.9 µM | M14 16.2 µM | MDA-MB-435 20 µM | MDA-N 19.6 µM | NCI-H23 24.9 µM | OVCAR-3 15.7 µM | OVCAR-5 2.49 µM | PC-3 17 µM | SF-295 18.8 µM | SK-MEL-5 19 µM | SN12C 18.2 µM | SNB-75 21.6 µM | SW-620 22.5 µM | T47D 21.3 µM | UACC-257 20.1 µM | UACC-62 19.3 µM

O=c1[nH]c2ccc(O)cc2o1
inactive: CAKI-1 > 100 µM | EKVX > 100 µM | HL-60 > 100 µM | M14 > 100 µM | MDA-N > 100 µM | NCI-H23 > 100 µM | OVCAR-3 > 100 µM | OVCAR-5 > 100 µM | PC-3 > 100 µM | SF-295 > 100 µM | SF-539 > 100 µM | SK-MEL-5 > 100 µM | SN12C > 100 µM | SNB-75 42.7 µM | SW-620 > 100 µM | T47D > 100 µM | TK-10 > 100 µM | UACC-257 > 100 µM | UACC-62 > 100 µM

Fc1cccc2nc(-c3ccccc3)cc(OCc3ccccc3)c12
inactive: EKVX 20.8 µM | HL-60 > 100 µM | M14 > 100 µM | MDA-MB-435 > 100 µM | MDA-N > 100 µM | NCI-H23 > 100 µM | OVCAR-3 > 100 µM | OVCAR-5 > 100 µM | PC-3 > 100 µM | SF-295 > 100 µM | SK-MEL-5 28.4 µM | SN12C > 100 µM | SNB-75 65.6 µM | SW-620 > 100 µM | T47D 89.3 µM | TK-10 > 100 µM | UACC-257 > 100 µM | UACC-62 > 100 µM

O=C1O[C@H]2[C@@H]3OC(=O)c4cc(O)c(O)c(O)c4-c4c(cc(O)c(O)c4O)C(=O)OC[C@H]2O[C@@H](OC(=O)c2cc(O)c(O)c(O)c2)[C@@H]3OC(=O)c2cc(O)c(O)c3c2[C@@H]2C1=CC(=O)C(O)(O)C2(O)O3 (some centres undefined)
inactive: CAKI-1 14.1 µM | EKVX 16.1 µM | HL-60 20.7 µM | M14 19.7 µM | MDA-MB-435 16.7 µM | MDA-N 16 µM | NCI-H23 33.1 µM | OVCAR-3 35.6 µM | OVCAR-5 16.4 µM | PC-3 39.7 µM | SF-295 31.6 µM | SK-MEL-5 25.5 µM | SN12C 16.9 µM | SNB-75 24.6 µM | SW-620 18.5 µM | T47D 26.8 µM | UACC-257 51.6 µM | UACC-62 30.1 µM
